In patent US20040072992A1, “Novel peptide capable of specifically acting on biological membrane” (priority 2002, published 2004):
Several values for one entry are separate records, joined by “and”; a condition that tells them apart may be missing. Equal values may be shown once. Where no end group is shown, it is not given here.

Columns and labels:
E. coli CE-273 = conditions: CE-273, 18 h
[1] = Anti-cancer activity, HL60 cell; type: cell-based, human; conditions: sulforhodamine B
Method: (§1) Anti-cancer activity was evaluated using a method complying with an anti-cancer agent screening method (1990) using a human cancer cell panel which has been carried out by U.S. National Cancer Institute (NCI). Cells employed in experiments were from the following three cell lines: HL60 cell (cell line derived from human leukemia); HeLa cell (cell line derived from human uterine cancer); and HCT116 cell (cell line derived from human large intestine cancer). Media suitable for use of these cells are RPMI-1640 medium containing 10% FCS; a MEM medium containing 10% CS; and McCoy5A medium containing 10% FCS, respectively.
(§2) Cells suspended in themedium wereplated into 96-well plates at a concentration of 1×10^5 cells/cm^2, followed by incubation overnight. Peptide solutions containing various concentrations of the peptide of the present invention were added to the plates, followed by incubation at 37° C. for 2 days in a CO2 incubator. […]

S. enteritidis ATC14028 = conditions: ATC14028, 18 h
S. aureus IFO13276 = conditions: IFO13276, 18 h
[2] = Anti-cancer activity, HCT116 cell; type: cell-based, human; conditions: sulforhodamine B
Method: as §1, §2

S. enteritidis ATCC1891 = conditions: ATCC1891, 18 h
B. subtilis IFO13722 = conditions: IFO13722, 18 h
E. coli JCM1649 = conditions: JCM1649, 18 h
S. aureus JCM2413 = conditions: JCM2413, 18 h
[3] = Anti-cancer activity, HeLa cell; type: cell-based, human; conditions: sulforhodamine B
Method: as §1, §2

E. coli CR-3 = conditions: CR-3, 18 h
B. sereus IFO3457 = conditions: 18 h
[4] = Anti-cancer activity, A172; type: cell-based, human; conditions: A172, glioblastoma; for CC50 at 2 days: human, read-out: LC50; for CC50: read-out: LC50 (the source's name)
Method: as §1
(§3) Cells suspended in themedium wereplated into 96-well plates at a concentration of 1×10^5 cells/cm^2, followed by incubation overnight. Peptide solutions containing various concentrations of the peptide of the present invention were added to the plates, followed by incubation at 37° C. for 2 days in a CO2 incubator. During culturing, the growth of the cells was measured by colorimetry using sulforhodamine B and the peptide concentration was categorized into any of GI50 which is the concentration at which the growth is inhibited by 50% as compared to the control; TGI which is the concentration at which the number of cells is seemingly not increased or decreased from the time of addition of the peptide of the present invention, i.e., the growth is suppressed to the same number of cells as when the peptide was added: and LC50 which is the concentration at which the number of cells is decreased to 50% of that at the time of addition of the peptide.
(§4) Thereafter, various cancer cells were employed to confirm the anti-cancer activity of mast21R. Each cancer cell was cultured in RPMI-1640 medium containing 10% FCS.

[5] = Anti-cancer activity, EJ-1 cell; type: cell-based, human; conditions: for CC50 at 2 days: human, EJ-1 cells (bladder cancer cells), read-out: LC50; for CC50: bladder cancer, read-out: LC50 (the source's name)
Method: as §1, §3, §4

[6] = Anti-cancer activity, SR-BR-3; type: cell-based, human; conditions: SR-BR-3, breast cancer; for CC50 at 2 days: human, SR-BR-3 cells (breast cancer cells), read-out: LC50; for CC50: read-out: LC50 (the source's name)
Method: as §1, §3, §4

[7] = Anti-cancer activity, DU-145; type: cell-based, human; conditions: DU-145, prostate cancer; for CC50 at 2 days: human, read-out: LC50; for CC50: read-out: LC50 (the source's name)
Method: as §1, §3, §4

[8] = Anti-cancer activity, D98-AH2; type: cell-based, human; conditions: for CC50 at 2 days: human, D98-AH2 cells (uterine cancer cells), read-out: LC50; for CC50: D98-AH2, uterine cancer, read-out: LC50 (the source's name)
Method: as §1, §3, §4

[9] = Anti-cancer activity, EBC-1; type: cell-based, human; conditions: EBC-1, lung cancer; for CC50 at 2 days: human, EBC-1 cells (lung cancer cells), read-out: LC50; for CC50: read-out: LC50 (the source's name)
Method: as §1, §3, §4

[10] = Anti-cancer activity, MCF7; type: cell-based, human; conditions: for LC50 at 2 days: human, MCF7 cells (breast cancer cells); for LC50: MCF7, breast cancer
Method: as §1, §3, §4

[11] = Anti-cancer activity, SH-10-TC; type: cell-based, human; conditions: for LC50 at 2 days: human, SH-10-TC cells (stomach cancer cells); for LC50: stomach cancer
Method: as §1, §3, §4

[12] = Anti-cancer activity, 5637 cell; type: cell-based, human; conditions: bladder cancer; for CC50 at 2 days: human, read-out: LC50; for CC50: read-out: LC50 (the source's name)
Method: as §1, §3, §4

[13] = test system: Erwinia carotovora (NBRC3380); assay: Antibacterial activity against plant pathogenic bacteria; type: cell-based; conditions: 30° C., 16 to 24 h
Method: Mast21, mast21R, ALR6, and KVL6 were evaluated with respect to antibacterial activity against Erwinia carotovora (NBRC3380) which is a plant pathogenic bacterium causing soft rot. Specifically, a minimum concentration of a peptide capable of inhibiting the growth of bacteria was determined using microtiter plates. Bacteria were cultured for 16 h in culture medium (Difco Nutrient Broth 8 g, NaCl 5 g/L, pH 7.0), followed by measurement of absorbance at A600. Each bacterial strain was diluted into a final concentration of 1×10^6 CFU/ml. For each peptide, 5 mM aqueous solution was prepared, and thereafter, was subjected to serial dilution. The peptide serial dilutions (50 μl for each) were added to respective wells of the microplate to which 50 μl of the bacterial solution had been added (final cell concentration: 5×10^5 CFU/ml, final peptide concentration: 0 to 50 μM). […] The unit of concentration described in Table 9 is μM.

[14] = Anti-cancer activity, PC-3; type: cell-based, human; conditions: PC-3, prostate cancer; for CC50 at 2 days: human, PC-3 cells (prostate cancer cells), read-out: LC50; for CC50: read-out: LC50 (the source's name)
Method: as §1, §3, §4

[15] = Anti-cancer activity, ACHN; type: cell-based, human; conditions: for CC50 at 2 days: human, ACHN cells (kidney cancer cells), read-out: LC50; for CC50: kidney cancer, read-out: LC50 (the source's name)
Method: as §1, §3, §4

[16] = Anti-cancer activity, HCT-15; type: cell-based, human; conditions: HCT-15, large intestine cancer; for CC50 at 2 days: human, HCT-15 cells (large intestine cancer cells), read-out: LC50; for CC50: read-out: LC50 (the source's name)
Method: as §1, §3, §4

[17] = Anti-cancer activity, colo205; type: cell-based, human; conditions: colo205, large intestine cancer; for CC50 at 2 days: human, read-out: LC50; for CC50: read-out: LC50 (the source's name)
Method: as §1, §3, §4

[18] = Anti-cancer activity, A549; type: cell-based, human; conditions: A549, lung cancer; for CC50 at 2 days: human, read-out: LC50; for CC50: read-out: LC50 (the source's name)
Method: as §1, §3, §4

[19] = Anti-cancer activity, NIH OVCAR-3; type: cell-based, human; conditions: NIH OVCAR-3, ovarian cancer; for CC50 at 2 days: human, NIH OVCAR-3 cells (ovarian cancer cells), read-out: LC50; for CC50: read-out: LC50 (the source's name)
Method: as §1, §3, §4

[20] = Anti-cancer activity, KATO III cell; type: cell-based, human; conditions: for CC50 at 2 days: human, KATO III cells (stomach cancer cells), read-out: LC50; for CC50: stomach cancer, read-out: LC50 (the source's name)
Method: as §1, §3, §4

[21] = Anti-cancer activity, LK-2; type: cell-based, human; conditions: LK-2, lung cancer; for CC50 at 2 days: human, LK-2 cells (lung cancer cells), read-out: LC50; for CC50: read-out: LC50 (the source's name)
Method: as §1, §3, §4

erythrocytes = conditions: red cells of human, 100 μM
[22] = 2 days, read-out: LC50 (the source's name)

Sequence: KVLKVLKVLKVLKVL [KVL5, KVLKVLKVLKVLKVL]
- MIC (E. coli CE-273): 6.3 µM
- LC50 at 2 days ([1]; human, HL60 cells (leukemia cell line)): > 100 µM
- MIC (S. enteritidis ATC14028): 100 µM
- MIC (S. aureus IFO13276): 100 µM
- CC50 at 2 days ([2]; human, read-out: LC50): > 100 µM
- MIC (S. enteritidis ATCC1891): 25 µM
- MIC (B. subtilis IFO13722): 25 µM
- MIC (E. coli JCM1649): 12.5 µM
- MIC (S. aureus JCM2413): 200 µM
- CC50 at 2 days ([3]; human, HeLa cells (uterine cancer cell line), read-out: LC50): > 100 µM
- MIC (E. coli CR-3): 25 µM
- MIC (B. sereus IFO3457): 200 µM

Sequence: KVLKVLKVLKVLKVLKVL [KVL6, KVLKVLKVLKVLKVLKVL]
- CC50 at 2 days [4]: > 100 µM
- CC50 at 2 days [5]: 90 µM
- CC50 at 2 days [6]: 100 µM
- CC50 at 2 days [7]: > 100 µM
- CC50 at 2 days [8]: > 100 µM
- CC50 at 2 days [9]: > 100 µM
- LC50 at 2 days [10]: 100 µM
- LC50 at 2 days [11]: 60 µM
- CC50 at 2 days [12]: 100 µM
- MIC [13]: 3.1 μM and 3.2 μg/ml
- CC50 at 2 days [14]: > 100 µM
- CC50 at 2 days [15]: 80 µM
- CC50 at 2 days [16]: 80 µM
- CC50 at 2 days [17]: 100 µM
- CC50 at 2 days [18]: 70 µM
- CC50 at 2 days [19]: > 100 µM
- CC50 at 2 days [20]: 100 µM
- CC50 at 2 days [21]: > 100 µM

Sequence: KNWKGIAGMAKKLLGKNWKLM [mast21, reference compound]
- MIC (E. coli CE-273): 3.1 µM
- CC50 [4]: > 100 µM
- MIC (S. enteritidis ATC14028): 6.3 µM
- MIC (S. aureus IFO13276): 25 µM
- CC50 [5]: 70 µM
- CC50 [6]: 90 µM
- CC50 [7]: > 100 µM
- MIC (S. enteritidis ATCC1891): 6.3 µM
- CC50 [8]: > 100 µM
- MIC (B. subtilis IFO13722): 6.3 µM
- CC50 [9]: 100 µM
- LC50 [10]: 100 µM
- LC50 [11]: 90 µM
- MIC (E. coli JCM1649): 6.3 µM
- CC50 [12]: > 100 µM
- MIC (S. aureus JCM2413): 12.5 µM
- MIC [13]: 3.1 μM and 3.7 μg/ml
- CC50 [14]: 100 µM
- CC50 [15]: 80 µM
- MIC (E. coli CR-3): 6.3 µM
- CC50 [16]: 80 µM
- CC50 [17]: > 100 µM
- Hemolytic property (relative value) (erythrocytes): 5.4%
- CC50 [18]: 70 µM
- CC50 [19]: 100 µM
- MIC (B. sereus IFO3457): 3.1 µM
- CC50 [20]: > 100 µM
- CC50 [21]: > 100 µM

Sequence: RNWRGIAGMARRLLGRNWRLM [mast21R]
- MIC (E. coli CE-273): 3.1 µM
- LC50 ([1]; 2 days): 20 µM
- CC50 [4]: 50 µM
- MIC (S. enteritidis ATC14028): 3.1 µM
- MIC (S. aureus IFO13276): 6.25 µM
- CC50 [5]: 20 µM
- CC50 [6]: 90 µM
- CC50 [2, 22]: 2 µM
- CC50 [7]: 90 µM
- MIC (S. enteritidis ATCC1891): 3.1 µM
- CC50 [8]: 50 µM
- MIC (B. subtilis IFO13722): 1.56 µM
- CC50 [9]: 70 µM
- LC50 [10]: 90 µM
- LC50 [11]: 60 µM
- MIC (E. coli JCM1649): 3.1 µM
- CC50 [12]: 50 µM
- MIC (S. aureus JCM2413): 6.25 µM
- CC50 [3, 22]: 20 µM
- MIC [13]: 1.6 μM and 2 μg/ml
- CC50 [14]: 60 µM
- CC50 [15]: 30 µM
- MIC (E. coli CR-3): 1.6 µM
- CC50 [16]: 30 µM
- CC50 [17]: 50 µM
- Hemolytic property (relative value) (erythrocytes): 13%
- CC50 [18]: 50 µM
- CC50 [19]: 80 µM
- MIC (B. sereus IFO3457): 3.1 µM
- CC50 [20]: 50 µM
- CC50 [21]: > 100 µM

Sequence: ALRALRALRALRALRALR [ALR6, ALRALRALRALRALRALR]
- CC50 at 2 days [4]: > 100 µM
- CC50 at 2 days [5]: > 100 µM
- CC50 at 2 days [6]: 100 µM
- CC50 at 2 days [7]: > 100 µM
- CC50 at 2 days [8]: > 100 µM
- CC50 at 2 days [9]: > 100 µM
- LC50 at 2 days [10]: 80 µM
- LC50 at 2 days [11]: > 100 µM
- CC50 at 2 days [12]: > 100 µM
- MIC [13]: 3.1 μM and 3.2 μg/ml
- CC50 at 2 days [14]: > 100 µM
- CC50 at 2 days [15]: > 100 µM
- CC50 at 2 days [16]: > 100 µM
- CC50 at 2 days [17]: > 100 µM
- CC50 at 2 days [18]: > 100 µM
- CC50 at 2 days [19]: > 100 µM
- CC50 at 2 days [20]: > 100 µM
- CC50 at 2 days [21]: > 100 µM
